Source: the NIST ThermoML archive (doi:10.1016/j.jct.2004.12.014)
Numbers after ± are expanded uncertainties.

What was measured:
[1] = refractive index (Na D-line) (dimensionless); settings: 318.15 K; 101.33 kPa; Liquid; Standard Abbe refractometry
[2] = 318.15 K; 101.33 kPa; Liquid
[3] = xn = mol fraction of the nth substance listed; settings: 318.15 K, 101 kPa, Liquid
[4] = excess molar enthalpy (molar enthalpy of mixing); xn = mol fraction of the nth substance listed; settings: 318.15 K, 101 kPa, Liquid

CCCCOC(=O)CC [butyl propanoate]
Settings | mass density [kg/m3] | refractive index
[1] | – | 1.3895 ± 0.0008
[2] | 851.33 ± 0.99 | –

CCOC(=O)CC [ethyl propanoate]
Settings | mass density [kg/m3] | refractive index
[1] | – | 1.3711 ± 0.0008
[2] | 860.98 ± 0.99 | –

CCC(=O)OC [methyl propanoate]
Settings | mass density [kg/m3] | refractive index
[1] | – | 1.3641 ± 0.0008
[2] | 884.6 ± 0.99 | –

CCCCCOC(=O)CC [pentyl propanoate]
Settings | mass density [kg/m3]
[2] | 848.98 ± 0.99

CCCCCOC(=O)CC [pentyl propanoate] + CCCCCCCCCCCCCCCCC
Settings | excess molar enthalpy [kcal/mol] | excess molar volume [m3/mol]
[3], x1 = 0.1083 | – | 2.44e-07 ± 1.7e-08
[3], x1 = 0.2045 | – | 4.6e-07 ± 1.8e-08
[3], x1 = 0.2891 | – | 6.18e-07 ± 1.8e-08
[3], x1 = 0.3649 | – | 6.95e-07 ± 1.9e-08
[3], x1 = 0.4391 | – | 7.63e-07 ± 1.9e-08
[3], x1 = 0.5053 | – | 8.03e-07 ± 1.9e-08
[3], x1 = 0.5658 | – | 7.98e-07 ± 1.9e-08
[3], x1 = 0.6233 | – | 7.82e-07 ± 1.9e-08
[3], x1 = 0.6778 | – | 7.45e-07 ± 1.9e-08
[3], x1 = 0.7277 | – | 6.88e-07 ± 1.9e-08
[3], x1 = 0.7752 | – | 6.07e-07 ± 1.8e-08
[3], x1 = 0.8185 | – | 5.23e-07 ± 1.8e-08
[3], x1 = 0.8587 | – | 4.3e-07 ± 1.8e-08
[3], x1 = 0.8969 | – | 3.33e-07 ± 1.7e-08
[3], x1 = 0.9324 | – | 2.44e-07 ± 1.7e-08
[3], x1 = 0.9677 | – | 1.14e-07 ± 1.6e-08
[4], x1 = 0.1196 | 0.103 ± 0.00198 | –
[4], x1 = 0.2114 | 0.166 ± 0.00287 | –
[4], x1 = 0.3026 | 0.217 ± 0.00382 | –
[4], x1 = 0.3904 | 0.251 ± 0.0043 | –
[4], x1 = 0.469 | 0.269 ± 0.00454 | –
[4], x1 = 0.5373 | 0.273 ± 0.00454 | –
[4], x1 = 0.5951 | 0.267 ± 0.00454 | –
[4], x1 = 0.6196 | 0.26 ± 0.0043 | –
[4], x1 = 0.6625 | 0.247 ± 0.0043 | –
[4], x1 = 0.7073 | 0.228 ± 0.00382 | –
[4], x1 = 0.7545 | 0.203 ± 0.00359 | –
[4], x1 = 0.8044 | 0.177 ± 0.00311 | –
[4], x1 = 0.8552 | 0.143 ± 0.00263 | –
[4], x1 = 0.9052 | 0.101 ± 0.00196 | –
[4], x1 = 0.9542 | 0.0541 ± 0.00127 | –

CCCOC(=O)CC [propyl propanoate]
Settings | mass density [kg/m3] | refractive index
[1] | – | 1.3809 ± 0.0008
[2] | 854.57 ± 0.99 | –

CCCOC(=O)CC [propyl propanoate] + CCCCCCC
Settings | excess molar enthalpy [kcal/mol] | excess molar volume [m3/mol]
[3], x1 = 0.0283 | – | 9e-08 ± 1.6e-08
[3], x1 = 0.066 | – | 2.02e-07 ± 1.6e-08
[3], x1 = 0.1305 | – | 3.13e-07 ± 1.7e-08
[3], x1 = 0.1912 | – | 4.11e-07 ± 1.7e-08
[3], x1 = 0.2529 | – | 4.97e-07 ± 1.8e-08
[3], x1 = 0.3157 | – | 5.6e-07 ± 1.8e-08
[3], x1 = 0.3768 | – | 5.86e-07 ± 1.8e-08
[3], x1 = 0.437 | – | 6.03e-07 ± 1.8e-08
[3], x1 = 0.4973 | – | 6.01e-07 ± 1.8e-08
[3], x1 = 0.5557 | – | 5.81e-07 ± 1.8e-08
[3], x1 = 0.6132 | – | 5.43e-07 ± 1.8e-08
[3], x1 = 0.6703 | – | 4.91e-07 ± 1.8e-08
[3], x1 = 0.7248 | – | 4.24e-07 ± 1.7e-08
[3], x1 = 0.7801 | – | 3.67e-07 ± 1.7e-08
[3], x1 = 0.8355 | – | 2.94e-07 ± 1.7e-08
[3], x1 = 0.8887 | – | 2.07e-07 ± 1.6e-08
[3], x1 = 0.9444 | – | 1.24e-07 ± 1.6e-08
[4], x1 = 0.0639 | 0.0623 ± 0.00136 | –
[4], x1 = 0.1325 | 0.109 ± 0.00208 | –
[4], x1 = 0.2009 | 0.149 ± 0.00263 | –
[4], x1 = 0.273 | 0.179 ± 0.00311 | –
[4], x1 = 0.338 | 0.198 ± 0.00335 | –
[4], x1 = 0.3985 | 0.208 ± 0.00359 | –
[4], x1 = 0.4549 | 0.215 ± 0.00359 | –
[4], x1 = 0.5052 | 0.218 ± 0.00382 | –
[4], x1 = 0.5147 | 0.218 ± 0.00382 | –
[4], x1 = 0.5577 | 0.214 ± 0.00359 | –
[4], x1 = 0.6066 | 0.207 ± 0.00359 | –
[4], x1 = 0.6615 | 0.194 ± 0.00335 | –
[4], x1 = 0.7197 | 0.173 ± 0.00311 | –
[4], x1 = 0.7781 | 0.147 ± 0.00263 | –
[4], x1 = 0.8381 | 0.115 ± 0.00217 | –
[4], x1 = 0.8975 | 0.0783 ± 0.0016 | –
[4], x1 = 0.9534 | 0.0399 ± 0.00103 | –

CCCOC(=O)CC [propyl propanoate] + CCCCCCCCC
Settings | excess molar enthalpy [kcal/mol] | excess molar volume [m3/mol]
[3], x1 = 0.0358 | – | 1.43e-07 ± 1.6e-08
[3], x1 = 0.0804 | – | 2.79e-07 ± 1.7e-08
[3], x1 = 0.1547 | – | 4.77e-07 ± 1.8e-08
[3], x1 = 0.2247 | – | 6.11e-07 ± 1.8e-08
[3], x1 = 0.2939 | – | 7.16e-07 ± 1.9e-08
[3], x1 = 0.3601 | – | 7.97e-07 ± 1.9e-08
[3], x1 = 0.4243 | – | 8.28e-07 ± 1.9e-08
[3], x1 = 0.4879 | – | 8.32e-07 ± 1.9e-08
[3], x1 = 0.5463 | – | 8.3e-07 ± 1.9e-08
[3], x1 = 0.6022 | – | 7.94e-07 ± 1.9e-08
[3], x1 = 0.6569 | – | 7.54e-07 ± 1.9e-08
[3], x1 = 0.7113 | – | 6.79e-07 ± 1.9e-08
[3], x1 = 0.7635 | – | 6.03e-07 ± 1.8e-08
[3], x1 = 0.8139 | – | 4.89e-07 ± 1.8e-08
[3], x1 = 0.8623 | – | 4.1e-07 ± 1.7e-08
[3], x1 = 0.9092 | – | 3.02e-07 ± 1.7e-08
[3], x1 = 0.9537 | – | 1.55e-07 ± 1.6e-08
[4], x1 = 0.0729 | 0.0736 ± 0.00155 | –
[4], x1 = 0.1505 | 0.13 ± 0.00239 | –
[4], x1 = 0.2274 | 0.179 ± 0.00311 | –
[4], x1 = 0.3035 | 0.216 ± 0.00382 | –
[4], x1 = 0.3733 | 0.239 ± 0.00406 | –
[4], x1 = 0.4372 | 0.25 ± 0.0043 | –
[4], x1 = 0.4858 | 0.252 ± 0.0043 | –
[4], x1 = 0.5248 | 0.252 ± 0.0043 | –
[4], x1 = 0.5688 | 0.248 ± 0.0043 | –
[4], x1 = 0.6152 | 0.239 ± 0.00406 | –
[4], x1 = 0.6667 | 0.223 ± 0.00382 | –
[4], x1 = 0.7215 | 0.198 ± 0.00335 | –
[4], x1 = 0.7776 | 0.169 ± 0.00311 | –
[4], x1 = 0.8356 | 0.135 ± 0.00239 | –
[4], x1 = 0.8948 | 0.0929 ± 0.00184 | –
[4], x1 = 0.951 | 0.0476 ± 0.00115 | –

CCCCCCCCCCCCC [tridecane] + CCC(=O)OC
Settings | excess molar enthalpy [kcal/mol] | excess molar volume [m3/mol]
[3], x2 = 0.0687 | – | 3.33e-07 ± 1.7e-08
[3], x2 = 0.1431 | – | 6.43e-07 ± 1.8e-08
[3], x2 = 0.2538 | – | 1.057e-06 ± 2e-08
[3], x2 = 0.3537 | – | 1.323e-06 ± 2.2e-08
[3], x2 = 0.4366 | – | 1.462e-06 ± 2.2e-08
[3], x2 = 0.5144 | – | 1.543e-06 ± 2.3e-08
[3], x2 = 0.5811 | – | 1.548e-06 ± 2.3e-08
[3], x2 = 0.6387 | – | 1.514e-06 ± 2.3e-08
[3], x2 = 0.6932 | – | 1.429e-06 ± 2.2e-08
[3], x2 = 0.7403 | – | 1.32e-06 ± 2.2e-08
[3], x2 = 0.7836 | – | 1.217e-06 ± 2.1e-08
[3], x2 = 0.8229 | – | 1.075e-06 ± 2e-08
[3], x2 = 0.8583 | – | 9.26e-07 ± 2e-08
[3], x2 = 0.8914 | – | 7.83e-07 ± 1.9e-08
[3], x2 = 0.9212 | – | 6.29e-07 ± 1.8e-08
[3], x2 = 0.9596 | – | 4.05e-07 ± 1.7e-08
[3], x2 = 0.9748 | – | 2.5e-07 ± 1.7e-08
[4], x2 = 0.1102 | 0.152 ± 0.00263 | –
[4], x2 = 0.2079 | 0.264 ± 0.00454 | –
[4], x2 = 0.298 | 0.349 ± 0.00574 | –
[4], x2 = 0.3751 | 0.407 ± 0.00669 | –
[4], x2 = 0.4404 | 0.44 ± 0.00717 | –
[4], x2 = 0.4912 | 0.457 ± 0.00741 | –
[4], x2 = 0.5388 | 0.465 ± 0.00765 | –
[4], x2 = 0.5843 | 0.466 ± 0.00765 | –
[4], x2 = 0.624 | 0.459 ± 0.00741 | –
[4], x2 = 0.6309 | 0.456 ± 0.00741 | –
[4], x2 = 0.6687 | 0.44 ± 0.00717 | –
[4], x2 = 0.7093 | 0.414 ± 0.00669 | –
[4], x2 = 0.7493 | 0.382 ± 0.00621 | –
[4], x2 = 0.7925 | 0.336 ± 0.0055 | –
[4], x2 = 0.8368 | 0.283 ± 0.00478 | –
[4], x2 = 0.8813 | 0.224 ± 0.00382 | –
[4], x2 = 0.9269 | 0.152 ± 0.00287 | –
[4], x2 = 0.9664 | 0.0759 ± 0.00172 | –
